Values of other authors as cited in US20260206768A1, “COMBINATION OF VARIOUS NITROGEN FIXING BACTERIA WITH VARIOUS BIOLOGICAL PRODUCTS TO ACHIEVE SYNERGISTIC EFFECTS” (Pivot Bio, Inc., priority 2022, published 2026).
Peptide text beside a SMILES is read from it.

Conditions: for Useful pH range: buffering range

Row | Compound | Useful pH range | pKa at 25° C.
1 | CC(=O)O [Acetic acid, Ethanoic acid] | 3.8-5.8 | 
2 | OCCN(CCO)CCO [TEA] | 7.3-8.3 | 
3 | CC(C)(N)CO [AMP] | 9.0-10.5 | 9.7
4 | OCC(CO)(CO)NCCCNC(CO)(CO)CO [Bis-Tris Propane] | 6.3-9.5 | 
5 | O=S(=O)(O)CCCNC1CCCCC1 [CAPS] | 9.7-11.1 | 10.4
6 | NC(=O)CN(CC(=O)O)CC(=O)O [ADA] | 6.0-7.2 | 6.59
7 | O=P([O-])([O-])[O-].[K+].[K+].[K+] [K3PO4] | 11.5-12.3 | 
8 | O=P([O-])([O-])O.[K+].[K+] [K2HPO4, dipotassium phosphate] | 8.7-9.4 | 
9 | NCC(=O)NCC(=O)O [Gly-Gly] (H-Gly-Gly-OH) | 7.5-8.9 | 
10 | O=C(O)CC(O)(CC(=O)O)C(=O)O [Citric acid, 2-Hydroxypropane-1,2,3-tricarboxylic acid] | 2.1-7.4 | 
11 | O=S(=O)(O)CCNC1CCCCC1 [CHES, N-Cyclohexyl-2-aminoethanesulfonic acid] | 8.3-10.3 | 
12 | NC(=O)CNCCS(=O)(=O)O [ACES] | 6.1-7.5 | 6.78
13 | O=C(O)CNC(CO)(CO)CO [Tricine, N-[tris(hydroxymethyl)methyl]glycine] | 7.4-8.8 | 
14 | CC(N)(CO)CO [AMPD] | 7.8-9.7 | 8.8
15 | OB(O)O [Boric acid] | 8.25-10.25 | 
16 | O=S(=O)(O)CCCN1CCN(CCO)CC1 [EPPS] | 7.3-8.7 | 8

Results, then the compound that gave them:

Row | Useful pH range | pKa at 25° C. | Compound
17 | 8.2-9.6 | 8.9 | O=S(=O)(O)CCCCNC(CO)(CO)CO [TABS]
18 | 7.2-8.5 | 7.8 | O=S(=O)(O)CC(O)CN1CCN(CC(O)CS(=O)(=O)O)CC1 (centres unmarked) [POPSO]
19 | 7.0-8.2 | 7.6 | O=S(=O)(O)CC(O)CN(CCO)CCO (centres unmarked) [DIPSO]
20 | 6.8-8.2 |  | O=S(=O)(O)CCNC(CO)(CO)CO [TES, 2-[[1,3-dihydroxy-2-(hydroxymethyl)propan-2-yl]amino]ethanesulfonic acid]
21 | 6.4-7.8 | 7.09 | O=S(=O)(O)CCN(CCO)CCO [BES]
22 | 8.3-9.7 | 9 | CC(C)(CO)NCC(O)CS(=O)(=O)O (centres unmarked) [AMPSO]
23 | 7.6-9.0 | 8.3 | O=S(=O)(O)CCCCN1CCN(CCO)CC1 [HEPBS]
24 | 6.9-8.3 | 7.6 | O=S(=O)(O)CCCCN1CCOCC1 [MOBS]
25 | 7.0-8.2 |  | O=S(=O)(O)CC(O)CNC(CO)(CO)CO (centres unmarked) [TAPSO, 3-[N-tris(hydroxymethyl)methylamino]-2-hydroxypropanesulfonic acid]
26 | 8.9-10.3 |  | O=S(=O)(O)CC(O)CNC1CCCCC1 (centres unmarked) [CAPSO]
27 | 10.0-11.4 | 10.7 | O=S(=O)(O)CCCCNC1CCCCC1 [CABS]
28 | 7.7-9.1 |  | O=S(=O)(O)CCCNC(CO)(CO)CO [TAPS, [tris(hydroxymethyl)methylamino]propanesulfonic acid]
29 | 6.1-7.5 | 6.76 | O=S(=O)(O)CCN1CCN(CCS(=O)(=O)O)CC1 [PIPES, piperazine-N,N′-bis(2-ethanesulfonic acid)]
